# Experiments:
# [1] = system: Human glioma GAMG; test: MTS cell proliferation, nanomolar antagonist, GAMG; assay type: cell-based; settings: Aprepitant 1, 5 and 7 nM, vs cells grown in the absence of antagonist, time dependant
# Experimental: Cell cultures of various commercial tumour cell lines stated in table 13 were used. [table] […] The number of cells was quantified using a Coulter counter. […] The culture plates were grown in the presence of increasing concentrations of non-peptide NK1 receptor antagonists. To obtain the staining in the proliferation assays, 20 μl of MTS were added to each one of the wells of the cell culture plates 90 minutes before reading the samples in a multiscan spectrophotometer (TECAN Spectra classic, Barcelona, Spain) at 492 nm (assay wavelength) and 690 nm (reference wavelength). The different doses were tested in duplicate and each experiment was performed in triplicate. The antagonist Aprepitant was used at the following concentrations: 1 nanomolar -nM-, 5 nanomolar -nM- and 7 nanomolar -nM-. […] As proliferation control, the cells were grown in the absence of said antagonist. This is expressed in FIGS. 1 to 10.
# [2] = system: human neuroblastoma; reference KELLY; test: Neuroblastoma KELLY tumours implanted s.c. in nude mice, Aprepitant alone; assay type: in vivo
# Experimental: (§1) Immunocompromised female mice, 5-6 weeks of age were used, nu/nu Balb/c nude mice, provided by Harlan Iberica Barcelona (Spain). They were kept at 24° C. and in sterile conditions with food and water “ad libitum”. They were injected with 2×10^7 tumour cells, corresponding to cancer (human lung cancer, reference HCC-44 supplied by DSMZ) in 200 μl of PBS subcutaneous route. The tumour size was measured and the mice were evaluated for their state of health and weight daily. The mice were randomized in nine groups when the tumours reached a volume of 75 mm^3. One of the groups was treated with 200 μl of placebo (control group) and the eight remaining groups with doses of 10 (group 1), 20 (group 2), 30 (group 3), 40 (group 4), 50 (group 5), 60 (group 6), 70 (group 7) and 80 (group 8) mg per kilogram of weight and day of the NK1 receptor antagonist Aprepitant. 3 animals were treated per group, during 28 days. All the mice were sacrificed at the end of the experiment.
# (§2) Immunocompromised female mice, 5-6 weeks of age were used, in the same conditions as explained in example 1. They were injected with 2×10^7 tumour cells, corresponding to an embryonic tumour (human neuroblastoma; reference KELLY; supplied by DSMZ) in 200 μl of PBS by subcutaneous route. The tumour size was measured and the mice were evaluated for their state of health and weight daily. The mice were randomized in nine groups when the tumours reached a volume of 75 mm^3. One of the groups was treated with 200 μl of placebo (control group) and the eight remaining groups with doses of 10 (group 1), 20 (group 2), 30 (group 3), 40 (group 4), 50 (group 5), 60 (group 6), 70 (group 7) and 80 (group 8) mg per kilogram of weight and day of the NK1 receptor antagonist Aprepitant. 3 animals were treated per group, during 28 days. All the mice were sacrificed at the end of the experiment.
# [3] = system: human melanoma; reference MEL-HO; test: Melanoma MEL-HO tumours implanted s.c. in nude mice, Aprepitant alone; assay type: in vivo
# Experimental: as §1
# as §2, with “a melanoma cell line” for “an embryonic”, “melanoma;” for “neuroblastoma;”, “MEL-HO;” for “KELLY;”
# [4] = Aprepitant 10 mg/kg/day, 7 days
# [5] = Aprepitant 10 mg/kg/day, 14 days
# [6] = Aprepitant 10 mg/kg/day, 21 days
# [7] = Aprepitant 10 mg/kg/day, 28 days
# [8] = Aprepitant 20 mg/kg/day, 7 days
# [9] = Aprepitant 20 mg/kg/day, 14 days
# [10] = Aprepitant 20 mg/kg/day, 21 days
# [11] = Aprepitant 20 mg/kg/day, 28 days
# [12] = Aprepitant 30 mg/kg/day, 7 days
# [13] = Aprepitant 30 mg/kg/day, 14 days
# [14] = Aprepitant 30 mg/kg/day, 21 days
# [15] = Aprepitant 30 mg/kg/day, 28 days
# [16] = Aprepitant 40 mg/kg/day, 7 days
# [17] = Aprepitant 40 mg/kg/day, 14 days
# [18] = Aprepitant 40 mg/kg/day, 21 days
# [19] = Aprepitant 40 mg/kg/day, 28 days
# [20] = Aprepitant 50 mg/kg/day, 7 days
# [21] = Aprepitant 50 mg/kg/day, 14 days
# [22] = Aprepitant 50 mg/kg/day, 21 days
# [23] = Aprepitant 50 mg/kg/day, 28 days
# [24] = Aprepitant 60 mg/kg/day, 7 days
# [25] = Aprepitant 60 mg/kg/day, 14 days
# [26] = Aprepitant 60 mg/kg/day, 21 days
# [27] = Aprepitant 60 mg/kg/day, 28 days
# [28] = Aprepitant 70 mg/kg/day, 7 days
# [29] = Aprepitant 70 mg/kg/day, 14 days
# [30] = Aprepitant 70 mg/kg/day, 21 days
# [31] = Aprepitant 70 mg/kg/day, 28 days
# [32] = Aprepitant 80 mg/kg/day, 7 days
# [33] = Aprepitant 80 mg/kg/day, 14 days
# [34] = Aprepitant 80 mg/kg/day, 21 days
# [35] = Aprepitant 80 mg/kg/day, 28 days
smiles,measurement,setting,value
C[C@@H](O[C@H]1OCCN(Cc2n[nH]c(=O)[nH]2)[C@H]1c1ccc(F)cc1)c1cc(C(F)(F)F)cc(C(F)(F)F)c1 [Aprepitant],Proliferation of tumour cells (MTS),[1],increase was observed of proliferation
same,Tumour size (mean volume of the tumour),[2]; [4],180 ± 4 cubic millimeters
same,Tumour size (mean volume of the tumour),[2]; [5],165 ± 6 cubic millimeters
same,Tumour size (mean volume of the tumour),[2]; [6],140 ± 5 cubic millimeters
same,Tumour size (mean volume of the tumour),[2]; [7],120 ± 2 cubic millimeters
same,Tumour size (mean volume of the tumour),[2]; [8],175 ± 7 cubic millimeters
same,Tumour size (mean volume of the tumour),[2]; [9],155 ± 7 cubic millimeters
same,Tumour size (mean volume of the tumour),[2]; [10],130 ± 4 cubic millimeters
same,Tumour size (mean volume of the tumour),[2]; [11],105 ± 4 cubic millimeters
same,Tumour size (mean volume of the tumour),[2]; [12],160 ± 3 cubic millimeters
same,Tumour size (mean volume of the tumour),[2]; [13],145 ± 3 cubic millimeters
same,Tumour size (mean volume of the tumour),[2]; [14],115 ± 3 cubic millimeters
same,Tumour size (mean volume of the tumour),[2]; [15],90 ± 6 cubic millimeters
same,Tumour size (mean volume of the tumour),[2]; [16],155 ± 6 cubic millimeters
same,Tumour size (mean volume of the tumour),[2]; [17],130 ± 6 cubic millimeters
same,Tumour size (mean volume of the tumour),[2]; [18],105 ± 7 cubic millimeters
same,Tumour size (mean volume of the tumour),[2]; [19],75 ± 8 cubic millimeters
same,Tumour size (mean volume of the tumour),[2]; [20],140 ± 4 cubic millimeters
same,Tumour size (mean volume of the tumour),[2]; [21],110 ± 5 cubic millimeters
same,Tumour size (mean volume of the tumour),[2]; [22],95 ± 7 cubic millimeters
same,Tumour size (mean volume of the tumour),[2]; [23],60 ± 5 cubic millimeters
same,Tumour size (mean volume of the tumour),[2]; [24],130 ± 5 cubic millimeters
same,Tumour size (mean volume of the tumour),[2]; [25],115 ± 7 cubic millimeters
same,Tumour size (mean volume of the tumour),[2]; [26],85 ± 3 cubic millimeters
same,Tumour size (mean volume of the tumour),[2]; [27],55 ± 9 cubic millimeters
same,Tumour size (mean volume of the tumour),[2]; [28],120 ± 6 cubic millimeters
same,Tumour size (mean volume of the tumour),[2]; [29],95 ± 8 cubic millimeters
same,Tumour size (mean volume of the tumour),[2]; [30],65 ± 6 cubic millimeters
same,Tumour size (mean volume of the tumour),[2]; [31],40 ± 5 cubic millimeters
same,Tumour size (mean volume of the tumour),[2]; [32],105 ± 7 cubic millimeters
same,Tumour size (mean volume of the tumour),[2]; [33],85 ± 6 cubic millimeters
same,Tumour size (mean volume of the tumour),[2]; [34],45 ± 5 cubic millimeters
same,Tumour size (mean volume of the tumour),[2]; [35],25 ± 6 cubic millimeters
same,Tumour size (mean volume of the tumour),[3]; [4],235 ± 3 cubic millimeters
same,Tumour size (mean volume of the tumour),[3]; [5],215 ± 4 cubic millimeters
same,Tumour size (mean volume of the tumour),[3]; [6],190 ± 4 cubic millimeters
same,Tumour size (mean volume of the tumour),[3]; [7],170 ± 6 cubic millimeters
same,Tumour size (mean volume of the tumour),[3]; [8],210 ± 6 cubic millimeters
same,Tumour size (mean volume of the tumour),[3]; [9],200 ± 5 cubic millimeters
same,Tumour size (mean volume of the tumour),[3]; [10],175 ± 5 cubic millimeters
same,Tumour size (mean volume of the tumour),[3]; [11],150 ± 7 cubic millimeters
same,Tumour size (mean volume of the tumour),[3]; [12],195 ± 7 cubic millimeters
same,Tumour size (mean volume of the tumour),[3]; [13],185 ± 6 cubic millimeters
same,Tumour size (mean volume of the tumour),[3]; [14],160 ± 6 cubic millimeters
same,Tumour size (mean volume of the tumour),[3]; [15],140 ± 4 cubic millimeters
same,Tumour size (mean volume of the tumour),[3]; [16],175 ± 8 cubic millimeters
same,Tumour size (mean volume of the tumour),[3]; [17],160 ± 8 cubic millimeters
same,Tumour size (mean volume of the tumour),[3]; [18],140 ± 4 cubic millimeters
same,Tumour size (mean volume of the tumour),[3]; [19],110 ± 6 cubic millimeters
same,Tumour size (mean volume of the tumour),[3]; [20],160 ± 5 cubic millimeters
same,Tumour size (mean volume of the tumour),[3]; [21],150 ± 4 cubic millimeters
same,Tumour size (mean volume of the tumour),[3]; [22],125 ± 5 cubic millimeters
same,Tumour size (mean volume of the tumour),[3]; [23],100 ± 7 cubic millimeters
same,Tumour size (mean volume of the tumour),[3]; [24],145 ± 6 cubic millimeters
same,Tumour size (mean volume of the tumour),[3]; [25],135 ± 5 cubic millimeters
same,Tumour size (mean volume of the tumour),[3]; [26],115 ± 6 cubic millimeters
same,Tumour size (mean volume of the tumour),[3]; [27],85 ± 4 cubic millimeters
same,Tumour size (mean volume of the tumour),[3]; [28],125 ± 4 cubic millimeters
same,Tumour size (mean volume of the tumour),[3]; [29],105 ± 6 cubic millimeters
same,Tumour size (mean volume of the tumour),[3]; [30],90 ± 4 cubic millimeters
same,Tumour size (mean volume of the tumour),[3]; [31],80 ± 7 cubic millimeters
same,Tumour size (mean volume of the tumour),[3]; [32],100 ± 6 cubic millimeters
same,Tumour size (mean volume of the tumour),[3]; [33],95 ± 7 cubic millimeters
same,Tumour size (mean volume of the tumour),[3]; [34],65 ± 7 cubic millimeters
same,Tumour size (mean volume of the tumour),[3]; [35],65 ± 9 cubic millimeters

# — patent US10463670B2, “Use of non-peptide NK1 antagonists in a predetermined dose for the treatment of cancer” (SERVICIO ANDALUZ DE SALUD, priority 2013, dated 2019)
